In patent US5416118A, “Bicyclic amides as inhibitors of acyl-coenzyme A: cholesterol acyl transferase” (Schering Corporation, priority 1993, dated 1995):

Key:
[1] = system: cholesteryl esters; assay: In Vivo Assay of Hypolipidemic Agents Using the Hyperlipidemic Hamster; settings: Mesocricetus auratus, po, 168 h, oral gavage once daily, 7 days, versus control, read-out: % Reduction in cholesteryl esters; for change in vivo at 50 mg/kg: 50 mpk
Method: In Vivo Assay of Hypolipidemic Agents Using the Hyperlipidemic Hamster
Hamsters are separated into groups of six and given a control cholesterol diet (Pudna Chow #5001 containing 0.5% cholesterol) for seven days. Diet consumption is monitored to determine dietary cholesterol exposure in the face of test compounds. The animals are dosed with the test compound once daily beginning with the initiation of diet. Dosing is by oral gavage of 0.2 mL of corn oil alone (control group) or solution (or suspension) of test compound in corn oil. All animals moribund or in poor physical condition are euthanized. After seven days, the animals are anesthetized by […] of ketamine and sacrificed by decapitation. Blood is collected into vacutainer tubes containing EDTA for plasma lipid analysis and the liver excised for tissue lipid analysis. Data is reported as percent reduction of lipid versus control.
(§1) Using the assay methods described above, the compounds of Examples 1-9 were tested for in vitro ACAT inhibitory activity and for the ability to lower the level of cholesteryl esters in vivo.

[2] = system: ACAT; assay: ACAT Assay (in vitro); type: biochemical; settings: dose = 10 μM; rat liver microsomes
Method: This assay measures the activity of ACAT by measuring the ACAT-mediated transfer of tritiated oleic acid from acyl-CoA to cholesterol to give labelled cholesterol oleate. Rat liver microsomes are used as the source of ACAT. Assays are performed in round bottom microtiterplates using a total incubation volume of 50 μL. Each incubation well receives 10 μL assay buffer (0.5M KHPO4, 10 μM dithiothreitol, pH 7.4), 7.5 μL of 40 mg/mL BSA (Bovine Serum Albumin) and 12.5 μg of microsomal protein. The test compound (in sufficient amount to bring the final concentration to from 0.1 to 25 μM), reference compound, or vehicle control is added and the final volume brought to 47 μL. The microtiterplate is then floated on the surface of a 37° C. water bath for fifteen minutes. Incubations are started by the addition of 3 μL ^3 H-acyl CoA (1 μCi/well, final concentration of 10 μM acyl CoA). The plate is then returned to the water bath for 15 minutes. The incubations are then terminated by application of 15 μL from each incubation to individual lanes on a thin layer plate (Silica Gel GF 20×20 cm). Standards are applied to several lanes so that the cholesterol ester band can be identified. After drying, the plates are eluted with 90:10:1 petroleum ether:ether:HOAc. The standards are visualized via iodine vapor, and the regions corresponding to cholesterol ester are scraped into 7 mL scintillation vials. 4 mL of scintillant are added to each vial, and the radioactivity quantified. Background count is determined by the boiled controls. Full activity is determined by activity in the presence of vehicle. The percent inhibition is calculated by subtracting the background from both control and test samples, and the test value is calculated as a percentage of the control. For IC50 determinations, the inhibition is plotted against drug doses on a log scale and the concentration at which 50% inhibition is obtained is determined.
as §1

Compound | change in vivo at 50 mg/kg [1] [%] | ACAT % Inhibition [2] [%] | change in vivo at 100 mg/kg ([1]; 100 mpk) [%]
O=C(N[C@@H]1c2ccc(O)cc2CC[C@@H]1c1ccccc1)C(c1ccccc1)c1ccccc1 (relative stereo) [Example 3M] | -45 | 87 | –
COc1ccc2c(c1)C[C@@H](c1ccccc1)[C@H]2NC(=O)C(c1ccccc1)c1ccccc1 (relative stereo) [Example 2R] | 0 | 75 | –
COc1ccc([C@H]2CCc3ccccc3[C@@H]2NC(=O)N(c2ccccc2)c2ccccc2)cc1 (relative stereo) [Example 6, trans-N'-[2-(4'-methoxyphenyl)-1,2,3,4-tetrahydronaphthalen-1-yl]-N,N-diphenylurea] | -16 | 97 | –
O=C(N[C@@H]1c2ccccc2C[C@@H]1c1ccc(O)c(Br)c1)C(c1ccccc1)c1ccccc1 (single isomer, unassigned) [Example 7, (+)-cis-N-[2-(3'-bromo-4'-hydroxyphenyl]indanyl]-α-phenylbenzeneacetamide] | -40 | 100 | –
CCCCCCCC/C=C\CCCCCCCC(=O)N[C@H]1c2ccccc2CC[C@H]1c1ccc(OC)cc1 (relative stereo) [Example 2G] | – | 73 | 0
O=C(N[C@@H]1c2ccccc2C[C@@H]1c1cc(Cl)c(O)c(Cl)c1)C(c1ccccc1)c1ccccc1 (relative stereo) [Example 8A, cis-N-[2-(3',5'-dichloro-4'-hydroxyphenyl)indanyl]-α-phenylbenzeneacetamide] | -14 | 99 | –
Cc1cc([C@H]2Cc3ccccc3[C@H]2NC(=O)C(c2ccccc2)c2ccccc2)cc(C)c1O (single isomer, unassigned) [Example 9A, (+)-cis-N-[2-(3',5'-dimethyl-4'-hydroxyphenyl)indanyl]-α-phenylbenzeneacetamide] | -60 | 97 | –
O=C(N[C@@H]1c2ccccc2CC[C@@H]1c1cccc(O)c1)C(c1ccccc1)c1ccccc1 (relative stereo) [Example 3C] | 0 | 77 | –
O=C(N[C@H]1c2ccccc2OC[C@H]1c1ccccc1)C(c1ccccc1)c1ccccc1 (relative stereo) [Example 1E] | 0 | 40 | –
O=C(N[C@@H]1c2cc(O)ccc2C[C@@H]1c1ccccc1)C(c1ccccc1)c1ccccc1 (relative stereo) [Example 3W] | 14 | 84 | –
